Reference: patent US20050032873A1, “3-Amino chroman and 2-amino tetralin derivatives” (Wyeth, priority 2003, published 2005)
Where two headings read alike, the source gives them in different places.

Assays:
[1] = target: T1, serotonin transporter (Rattus norvegicus, UniProt P31652); assay: 5-HT transporter affinity: displacement of 3H-paroxetine from male rat cortical membranes; assay type: binding; settings: displacement of 3H-paroxetine; male rat cortical membranes; read-out: 5-HT Transporter Affinity Ki
T1 construct: displace ^3H-paroxetine from male rat cortical membranes; from tissue; host or cells: male rat cortical membranes

[2] = target: T2, cloned human 5-HT1A receptors (Homo sapiens, UniProt P08908); assay: 35S-GTPγS binding assay, 5-HT1A function; assay type: biochemical; settings: for EC50: agonist potency; for IC50: antagonist potency, reversal of 8-OH-DPAT, read-out: 5-HT1A Function GTPγS IC50
T2 construct: expressed in transfected cells
T2 sequence (P08908 1-422): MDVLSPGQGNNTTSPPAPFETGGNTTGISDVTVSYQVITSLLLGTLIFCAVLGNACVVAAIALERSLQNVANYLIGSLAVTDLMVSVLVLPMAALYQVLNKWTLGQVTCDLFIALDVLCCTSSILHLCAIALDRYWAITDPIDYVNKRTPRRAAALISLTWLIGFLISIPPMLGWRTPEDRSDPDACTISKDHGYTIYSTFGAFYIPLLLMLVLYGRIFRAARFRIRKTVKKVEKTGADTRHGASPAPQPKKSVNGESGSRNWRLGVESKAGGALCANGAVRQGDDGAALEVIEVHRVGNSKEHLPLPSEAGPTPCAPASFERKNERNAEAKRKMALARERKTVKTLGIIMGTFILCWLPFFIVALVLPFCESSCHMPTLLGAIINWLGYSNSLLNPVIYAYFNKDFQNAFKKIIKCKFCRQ

[3] = target: T3, 5-HT1A receptor (Homo sapiens, UniProt P08908); assay: cAMP accumulation assay, 5-HT1A function; assay type: cell-based; settings: for EC50: cells marked EC50 (agonist); for Emax / 5-HT1A Function cAMP (Emax): in brackets after EC50 or IC50; for Emax: read-out: 5-HT1A Function cAMP (Emax); for IC50: cells marked IC50 (antagonist), read-out: 5-HT1A Function cAMP IC50
T3 sequence (P08908 1-422): T2 sequence (P08908 1-422)

[4] = target: T3, 5-HT1A receptor; assay: 5-HT1A receptor affinity: displacement of [3H] 8-OH-DPAT; assay type: binding; parameters: expressed in transfected cells; settings: displacement of [3H] 8-OH-DPAT; CHO cells stably transfected with human 5-HT1A receptors; read-out: 5-HT1A Receptor Affinity Ki
[5] = maximum stimulatory effect, in brackets after EC50, read-out: 5-HT1A Function GTPγS (Emax)
[6] = maximum inhibitory effect, in brackets after IC50, read-out: 5-HT1A Function GTPγS (Imax)
[7] = maximum stimulatory effect, in brackets after EC50

T1 sequence (P31652 whole entry): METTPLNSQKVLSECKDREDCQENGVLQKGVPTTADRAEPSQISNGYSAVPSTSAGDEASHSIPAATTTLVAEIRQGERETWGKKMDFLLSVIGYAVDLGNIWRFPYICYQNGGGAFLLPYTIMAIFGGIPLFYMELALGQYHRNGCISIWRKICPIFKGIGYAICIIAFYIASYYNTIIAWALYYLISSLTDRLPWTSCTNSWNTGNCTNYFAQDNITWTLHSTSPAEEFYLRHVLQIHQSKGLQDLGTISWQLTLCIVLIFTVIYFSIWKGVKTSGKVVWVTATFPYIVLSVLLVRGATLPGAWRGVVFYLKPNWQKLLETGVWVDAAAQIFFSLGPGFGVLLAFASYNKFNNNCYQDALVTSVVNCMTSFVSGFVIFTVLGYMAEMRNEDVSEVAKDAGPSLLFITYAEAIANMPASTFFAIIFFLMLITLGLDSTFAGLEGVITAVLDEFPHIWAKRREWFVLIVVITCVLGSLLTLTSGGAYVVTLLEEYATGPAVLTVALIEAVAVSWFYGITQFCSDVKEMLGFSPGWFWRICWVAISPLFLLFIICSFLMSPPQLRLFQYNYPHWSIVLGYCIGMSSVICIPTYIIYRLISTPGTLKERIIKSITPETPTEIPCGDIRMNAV

| Compound | Ki [1] | EC50 [2] | Emax [2, 5] | EC50 [3] | Emax [3] | Ki [4] | IC50 [2] | Emax [2, 6] | IC50 [3] | 5-HT1A Function GTPγS (Emax) [2, 7] | 5-HT1A Function cAMP (Emax) [3] |
| --- | --- | --- | --- | --- | --- | --- | --- | --- | --- | --- | --- |
| NC(=O)c1cccc2c1CC(N(CCCc1c[nH]c3ccc(F)cc13)CC1CC1)CO2 (stereo not shown) [Compound 148, 3-{(cyclopropylmethyl)[3-(5-fluoro-1H-indol-3-yl)propyl]amino}chromane-5-carboxamide] | 3.25 nM | 8.04 nM | 81% | 0.54 nM | 100% | 0.33 nM | – | – | – | – | – |
| CCN(CCCc1c[nH]c2ccc(F)cc12)C1COc2cccc(C(N)=O)c2C1 (stereo not shown) [Compound 149, 3-{ethyl[3-(5-fluoro-1H-indol-3-yl)propyl]amino}chromane-5-carboxamide] | 9.25 nM | 44.9 nM | 79% | 3.65 nM | 70% | 2.72 nM | – | – | – | – | – |
| CCCN(CCCc1c[nH]c2ccc(F)cc12)C1COc2cccc(C(N)=O)c2C1 (stereo not shown) [Compound 150, 3-[[3-(5-fluoro-1H-indol-3-yl)propyl](propyl)amino]chromane-5-carboxamide] | 18.6 nM | 13 nM | 74% | 1.23 nM | 100% | 0.93 nM | – | – | – | – | – |
| C[C@H](CCN(C1CCC1)[C@H]1COc2c(F)ccc(C(N)=O)c2C1)c1c[nH]c2ccc(F)cc12 [Compound 152a, (3R)-3-{cyclobutyl[(3R)-3-(5-fluoro-1H-indol-3-yl)butyl]amino}-8-fluorochromane-5-carboxamide] | 181 nM | – | – | – | 0% | 20 nM | 2200 nM | 100% | 544 nM | – | – |
| C[C@H](CCN(C1CCC1)[C@@H]1COc2c(F)ccc(C(N)=O)c2C1)c1c[nH]c2ccc(F)cc12 [Compound 152b, (3S)-3-{cyclobutyl[(3R)-3-(5-fluoro-1H-indol-3-yl)butyl]amino}-8-fluorochromane-5-carboxamide] | 182 nM | – | – | – | 0% | 322 nM | 5000 nM | 50% | 727 nM | – | – |
| C[C@@H](CCN(C1CCC1)[C@H]1COc2c(F)ccc(C(N)=O)c2C1)c1c[nH]c2ccc(F)cc12 [Compound 153a, (3R)-3-{cyclobutyl[(3S)-3-(5-fluoro-1H-indol-3-yl)butyl]amino}-8-fluorochromane-5-carboxamide] | 61.5 nM | – | – | – | 0% | 20.2 nM | 3610 nM | 100% | 727 nM | – | – |
| C[C@@H](CCN(C1CCC1)[C@@H]1COc2c(F)ccc(C(N)=O)c2C1)c1c[nH]c2ccc(F)cc12 [Compound 153b, (3S)-3-{cyclobutyl[(3S)-3-(5-fluoro-1H-indol-3-yl)butyl]amino}-8-fluorochromane-5-carboxamide] | 122 nM | – | – | – | 0% | 124 nM | 1450 nM | 64% | 166 nM | – | – |
| CCN(CCc1coc2c(OC)cccc12)C1COc2c(F)ccc(C(N)=O)c2C1 (stereo not shown) [Compound 157, 3-{ethyl[2-(7-methoxy-1-benzofuran-3-yl)ethyl]amino}-8-fluorochromane-5-carboxamide] | 768 nM | 1200 nM | 70% | – | 0% | 83.8 nM | – | – | – | – | – |
| CCCN(CCc1coc2c(OC)cccc12)C1COc2c(F)ccc(C(N)=O)c2C1 (stereo not shown) [Compound 158, 8-fluoro-3-[[2-(7-methoxy-1-benzofuran-3-yl)ethyl](propyl)amino]chromane-5-carboxamide] | 120 nM | 10600 nM | 59% | – | 0% | 232 nM | – | – | – | – | – |
| COc1cccc2c(CCN(CC3CC3)C3COc4c(F)ccc(C(N)=O)c4C3)coc12 (stereo not shown) [Compound 160, 3-{(cyclopropylmethyl)[2-(7-methoxy-1-benzofuran-3-yl)ethyl]amino}-8-fluorochromane-5-carboxamide] | 127 nM | 1020 nM | 51% | – | 0% | 33.8 nM | – | – | 948 nM | – | – |
| CCN(CCCc1coc2c(OC)cccc12)C1COc2c(F)ccc(C(N)=O)c2C1 (stereo not shown) [Compound 162, 3-{ethyl[3-(7-methoxy-1-benzofuran-3-yl)propyl]amino}-8-fluorochromane-5-carboxamide] | 61.5 nM | 45.8 nM | 87% | – | 0% | 2.09 nM | – | – | – | – | – |
| CCCN(CCCc1coc2c(OC)cccc12)C1COc2c(F)ccc(C(N)=O)c2C1 (stereo not shown) [Compound 163, 8-fluoro-3-[[3-(7-methoxy-1-benzofuran-3-yl)propyl](propyl)amino]chromane-5-carboxamide] | 539 nM | 4.56 nM | 52% | – | 0% | 0.74 nM | – | – | – | – | – |
| COc1cccc2c(CCCN(C3CCC3)C3COc4c(F)ccc(C(N)=O)c4C3)coc12 (stereo not shown) [Compound 164, 3-{cyclobutyl[3-(7-methoxy-1-benzofuran-3-yl)propyl]amino}-8-fluorochromane-5-carboxamide] | 428 nM | – | – | – | 0% | 11.9 nM | 446 nM | 100% | 116 nM | – | – |
| COc1cccc2c(CCCN(CC3CC3)C3COc4c(F)ccc(C(N)=O)c4C3)coc12 (stereo not shown) [Compound 165, 3-{(cyclopropylmethyl)[3-(7-methoxy-1-benzofuran-3-yl)propyl]amino}-8-fluorochromane-5-carboxamide] | 913 nM | 211 nM | 22% | – | 0% | 1.06 nM | 116 nM | 91% | 52.3 nM | – | – |
| CCN(CCCCc1coc2c(OC)cccc12)C1COc2c(F)ccc(C(N)=O)c2C1 (stereo not shown) [Compound 168, 3-{ethyl[4-(7-methoxy-1-benzofuran-3-yl)butyl]amino}-8-fluorochromane-5-carboxamide] | 187 nM | 243 nM | 76% | – | 0% | 3.49 nM | – | – | 50.8 nM | – | – |
| CCCN(CCCCc1coc2c(OC)cccc12)C1COc2c(F)ccc(C(N)=O)c2C1 (stereo not shown) [Compound 169, 8-fluoro-3-[[4-(7-methoxy-1-benzofuran-3-yl)butyl](propyl)amino]chromane-5-carboxamide] | 528 nM | – | – | – | 0% | 1.48 nM | 265 nM | 100% | 11.3 nM | – | – |
| COc1cccc2c(CCCCN(CC3CC3)C3COc4c(F)ccc(C(N)=O)c4C3)coc12 (stereo not shown) [Compound 170, 3-{(cyclopropylmethyl)[4-(7-methoxy-1-benzofuran-3-yl)butyl]amino}-8-fluorochromane-5-carboxamide] | 457 nM | – | – | – | 0% | 0.72 nM | 158 nM | 100% | 103 nM | – | – |
| COc1cccc2c(CCCCN(C3CCC3)C3COc4c(F)ccc(C(N)=O)c4C3)coc12 (stereo not shown) [Compound 171, 3-{cyclobutyl[4-(7-methoxy-1-benzofuran-3-yl)butyl]amino}-8-fluorochromane-5-carboxamide] | 11200 nM | – | – | – | 0% | 4.27 nM | 404 nM | 100% | 108 nM | – | – |
| CCN(CCCCn1ccc2cccc(F)c21)C1COc2c(F)ccc(C(N)=O)c2C1 (stereo not shown) [Compound 189, 3-{Ethyl[4-(7-fluoro-1H-indol-1-yl)butyl]amino}-8-fluorochromane-5-carboxamide] | 27.1 nM | – | – | 286 nM | 77.5% | 37.4 nM | 233 nM | 100% | – | – | – |
| NC(=O)c1ccc(F)c2c1CC(N(CCCCn1ccc3ccc(F)cc31)CC1CC1)CO2 (stereo not shown) [Compound 195, 3-{(Cyclopropylmethyl)[4-(6-fluoro-1H-indol-1-yl)butyl]amino}-8-fluorochromane-5-carboxamide] | 12.5 nM | – | – | 21.9 nM | 58% | 3.25 nM | 371 nM | 100% | – | – | – |
| NC(=O)c1ccc(F)c2c1CC(N(CCCCn1ccc3c(F)cccc31)CC1CC1)CO2 (stereo not shown) [Compound 203, 3-{(Cyclopropylmethyl)[4-(4-fluoro-1H-indol-1-yl)butyl]amino}-8-fluorochromane-5-carboxamide] | 161 nM | – | – | 216 nM | 72% | 9.64 nM | 6060 nM | 80% | – | – | – |
| [3-(5-fluoro-1H-indol-3-yl)-propyl]-(8-fluoro-5-methoxychroman-3-yl)propylamine [Compound 26] | 12.5 nM | 210 nM | – | 23.6 nM | – | 19.4 nM | – | – | – | 79.5% | 83.5% |
| [3-(5-fluoro-1H-indol-3-yl)-propyl]-((3R)-5-methoxychroman-3-yl)propylamine [Compound 24] | 9.75 nM | 48.3 nM | – | 7.02 nM | – | 8.87 nM | – | – | – | 91.7% | 88.5% |
